# Experimental data reported in paper PMC11436758, “Computer-aided drug design to generate a unique antibiotic family” (Nature Communications, 2024).
# What was measured:
# Format in all cases: cell-based
# [1] = tested on: 102 ATCC strains and clinical isolates of Staphylococcus, Streptomyces, and Enterococcus; assay: MIC panel summary over all strains; conditions: of 102 strains
# Procedure: We also sought to determine if DNM0547 was bacteriostatic or bactericidal. Time kill experiments were carried out using increasing doses of DNM0547 against two different strains of MRSA.
# (§1) The medium employed for the assay was Mueller Hinton II Broth (MHB II; Becton-Dickinson, Sparks, MD, USA). Agar plates used for the organisms were trypticase soy agar plus 5% sheep blood (BD; Sparks, MD, USA). MIC assay plates were prepared using the CLSI broth microdilution procedure. Automated liquid handlers (Multidrop 384, Biomek 2000 and Biomek FX) were used to conduct serial dilutions and liquid transfers. A standardized inoculum of each organism was prepared per CLSI methods. Suspensions were prepared to equal a 0.5 McFarland standard, followed by a 1:20 dilution in test media. The inocula were dispensed into sterile reservoirs divided by length (Beckman Colter) and the Biomek 2000 was used to inoculate the plates. Daughter plates were placed on the Biomek 2000 work surface in reverse orientation so that inoculation took place from low to high drug concentration. The Biomek 2000 delivered 10 μL of the diluted suspension into each well. These inoculations yielded a final cell concentration in the daughter plates of ~5 × 10^5 colony-forming units/mL in each well. The wells of the daughter plates ultimately contained 185 μL of broth, 5 μL of drug solution, and 10 μL of bacterial inoculum. Plates were covered with a sterile lid on the top plate, placed in plastic bags, and incubated at 35 °C for ~18 h. The microplates were viewed from the bottom using a plate viewer and the MIC was read. The MIC was recorded as the lowest concentration of drug that inhibited visible growth of the organism.
# S. aureus (MSSA) = assay: MIC, clinical and laboratory strains
# Procedure: as §1
# S. aureus (VISA) = assay: MIC, clinical and laboratory strains
# Procedure: as §1
# S. aureus (MRSA) = assay: MIC, clinical and laboratory strains
# Procedure: as §1
compound,measurement,setting,value
CC[C@H]1OC(=O)[C@H](C)[C@@H](O[C@H]2C[C@@](C)(OC)[C@@H](O)[C@H](C)O2)[C@H](C)[C@@H](O[C@@H]2O[C@H](C)C[C@H](N(C)C)[C@H]2O)[C@](C)(O)C[C@@H](C)C(=O)[C@H](C)[C@@H](O)[C@]1(C)O [erythromycin],number of strains tested with MIC not ≤ 2 μg/mL,[1],76
same,MIC,S. aureus (MSSA); S. aureus (MSSA) 2127,0.12 µg/mL
same,MIC,S. aureus (MSSA); S. aureus (MSSA) 6167,> 16 µg/mL
same,MIC,S. aureus (MSSA); S. aureus (MSSA) 6168,0.25 µg/mL
same,MIC,S. aureus (MSSA); S. aureus (MSSA) 6170,0.5 µg/mL
same,MIC,S. aureus (MSSA); S. aureus (MSSA) 6316,> 16 µg/mL
same,MIC,S. aureus (MSSA); S. aureus (MSSA) 6317,0.5 µg/mL
same,MIC,S. aureus (MSSA); S. aureus (MSSA) 6318,> 16 µg/mL
same,MIC,S. aureus (MSSA); S. aureus (MSSA) 6499,> 16 µg/mL
same,MIC,S. aureus (MSSA); S. aureus (MSSA) 6500,8 µg/mL
same,MIC,S. aureus (MSSA); S. aureus (MSSA) 6502,0.25 µg/mL
same,MIC,S. aureus (VISA); S. aureus (VISA) 1724,0.25 µg/mL
same,MIC,S. aureus (VISA); S. aureus (VISA) 2012,> 16 µg/mL
same,MIC,S. aureus (VISA); S. aureus (VISA) 2013,> 16 µg/mL
same,MIC,S. aureus (VISA); S. aureus (VISA) 2014,> 16 µg/mL
same,MIC,S. aureus (VISA); S. aureus (VISA) 2015,> 16 µg/mL
same,MIC,S. aureus (VISA); S. aureus (VISA) 2016,> 16 µg/mL
same,MIC,S. aureus (VISA); S. aureus (VISA) 2017,0.25 µg/mL
same,MIC,S. aureus (VISA); S. aureus (VISA) 2018,> 16 µg/mL
same,MIC,S. aureus (VISA); S. aureus (VISA) 2019,> 16 µg/mL
same,MIC,S. aureus (VISA); S. aureus (VISA) 2123,> 16 µg/mL
same,MIC,S. aureus (VISA); S. aureus (VISA) NRS1/1723,> 16 µg/mL
same,MIC,S. aureus (MRSA); S. aureus (MRSA) 2167,> 16 µg/mL
same,MIC,S. aureus (MRSA); S. aureus (MRSA) 2168,> 16 µg/mL
same,MIC,S. aureus (MRSA); S. aureus (MRSA) 2169,> 16 µg/mL
same,MIC,S. aureus (MRSA); S. aureus (MRSA) 2170,> 16 µg/mL
same,MIC,S. aureus (MRSA); S. aureus (MRSA) 2171,> 16 µg/mL
same,MIC,S. aureus (MRSA); S. aureus (MRSA) 2293,> 16 µg/mL
same,MIC,S. aureus (MRSA); S. aureus (MRSA) 2294,> 16 µg/mL
same,MIC,S. aureus (MRSA); S. aureus (MRSA) 2295,> 16 µg/mL
same,MIC,S. aureus (MRSA); S. aureus (MRSA) 2296,0.5 µg/mL
same,MIC,S. aureus (MRSA); S. aureus (MRSA) 2297,> 16 µg/mL
same,MIC,S. aureus (MRSA); S. aureus (MRSA) 3880,> 16 µg/mL
same,MIC,S. aureus (MRSA); S. aureus (MRSA) 5373,> 16 µg/mL
same,MIC,S. aureus (MRSA); S. aureus (MRSA) 5666,> 16 µg/mL
same,MIC,S. aureus (MRSA); S. aureus (MRSA) 5702,> 16 µg/mL
same,MIC,S. aureus (MRSA); S. aureus (MRSA) 5999,> 16 µg/mL
same,MIC,S. aureus (MRSA); S. aureus (MRSA) 6165,> 16 µg/mL
same,MIC,S. aureus (MRSA); S. aureus (MRSA) 6169,> 16 µg/mL
same,MIC,S. aureus (MRSA); S. aureus (MRSA) 6174,> 16 µg/mL
same,MIC,S. aureus (MRSA); S. aureus (MRSA) 6311,> 16 µg/mL
same,MIC,S. aureus (MRSA); S. aureus (MRSA) 6312,> 16 µg/mL
same,MIC,S. aureus (MRSA); S. aureus (MRSA) 6313,> 16 µg/mL
same,MIC,S. aureus (MRSA); S. aureus (MRSA) 6315,> 16 µg/mL
same,MIC,S. aureus (MRSA); S. aureus (MRSA) 6320,> 16 µg/mL
same,MIC,S. aureus (MRSA); S. aureus (MRSA) 6498,0.5 µg/mL
same,MIC,S. aureus (MRSA); S. aureus (MRSA) 6501,> 16 µg/mL
same,MIC,S. aureus (MRSA); S. aureus (MRSA) 6505,> 16 µg/mL
same,MIC,S. aureus (MRSA); S. aureus (MRSA) 6506,0.5 µg/mL
same,MIC,S. aureus (MRSA); S. aureus (MRSA) NRS382/2119,> 16 µg/mL
same,MIC,S. aureus (MRSA); S. aureus (MRSA) NRS383/2120,> 16 µg/mL
same,MIC,S. aureus (MRSA); S. aureus (MRSA) NRS384/2011,> 16 µg/mL
CN[C@H](CC(C)C)C(=O)N[C@H]1C(=O)N[C@@H](CC(N)=O)C(=O)N[C@H]2C(=O)N[C@H]3C(=O)N[C@H](C(=O)N[C@H](C(=O)O)c4cc(O)cc(O)c4-c4cc3ccc4O)[C@H](O)c3ccc(c(Cl)c3)Oc3cc2cc(c3O[C@@H]2O[C@H](CO)[C@@H](O)[C@H](O)[C@H]2O[C@H]2C[C@](C)(N)[C@H](O)[C@H](C)O2)Oc2ccc(cc2Cl)[C@H]1O [vancomycin],number of strains tested with MIC not ≤ 2 μg/mL,[1],37
same,MIC,S. aureus (MSSA); S. aureus (MSSA) 2127,1 µg/mL
same,MIC,S. aureus (MSSA); S. aureus (MSSA) 6167,0.5 µg/mL
same,MIC,S. aureus (MSSA); S. aureus (MSSA) 6168,0.5 µg/mL
same,MIC,S. aureus (MSSA); S. aureus (MSSA) 6170,0.5 µg/mL
same,MIC,S. aureus (MSSA); S. aureus (MSSA) 6316,1 µg/mL
same,MIC,S. aureus (MSSA); S. aureus (MSSA) 6317,0.5 µg/mL
same,MIC,S. aureus (MSSA); S. aureus (MSSA) 6318,0.5 µg/mL
same,MIC,S. aureus (MSSA); S. aureus (MSSA) 6499,0.5 µg/mL
same,MIC,S. aureus (MSSA); S. aureus (MSSA) 6500,0.5 µg/mL
same,MIC,S. aureus (MSSA); S. aureus (MSSA) 6502,0.5 µg/mL
same,MIC,S. aureus (VISA); S. aureus (VISA) 1724,4 µg/mL
same,MIC,S. aureus (VISA); S. aureus (VISA) 2012,8 µg/mL
same,MIC,S. aureus (VISA); S. aureus (VISA) 2013,4 µg/mL
same,MIC,S. aureus (VISA); S. aureus (VISA) 2014,4 µg/mL
same,MIC,S. aureus (VISA); S. aureus (VISA) 2015,4 µg/mL
same,MIC,S. aureus (VISA); S. aureus (VISA) 2016,4 µg/mL
same,MIC,S. aureus (VISA); S. aureus (VISA) 2017,8 µg/mL
same,MIC,S. aureus (VISA); S. aureus (VISA) 2018,4 µg/mL
same,MIC,S. aureus (VISA); S. aureus (VISA) 2019,4 µg/mL
same,MIC,S. aureus (VISA); S. aureus (VISA) 2123,8 µg/mL
same,MIC,S. aureus (VISA); S. aureus (VISA) NRS1/1723,8 µg/mL
same,MIC,S. aureus (MRSA); S. aureus (MRSA) 2167,0.5 µg/mL
same,MIC,S. aureus (MRSA); S. aureus (MRSA) 2168,0.5 µg/mL
same,MIC,S. aureus (MRSA); S. aureus (MRSA) 2169,1 µg/mL
same,MIC,S. aureus (MRSA); S. aureus (MRSA) 2170,0.5 µg/mL
same,MIC,S. aureus (MRSA); S. aureus (MRSA) 2171,0.5 µg/mL
same,MIC,S. aureus (MRSA); S. aureus (MRSA) 2293,0.5 µg/mL
same,MIC,S. aureus (MRSA); S. aureus (MRSA) 2294,0.5 µg/mL
same,MIC,S. aureus (MRSA); S. aureus (MRSA) 2295,0.5 µg/mL
same,MIC,S. aureus (MRSA); S. aureus (MRSA) 2296,0.5 µg/mL
same,MIC,S. aureus (MRSA); S. aureus (MRSA) 2297,1 µg/mL
same,MIC,S. aureus (MRSA); S. aureus (MRSA) 3880,0.5 µg/mL
same,MIC,S. aureus (MRSA); S. aureus (MRSA) 5373,0.5 µg/mL
same,MIC,S. aureus (MRSA); S. aureus (MRSA) 5666,0.5 µg/mL
same,MIC,S. aureus (MRSA); S. aureus (MRSA) 5702,0.5 µg/mL
same,MIC,S. aureus (MRSA); S. aureus (MRSA) 5999,0.5 µg/mL
same,MIC,S. aureus (MRSA); S. aureus (MRSA) 6165,1 µg/mL
same,MIC,S. aureus (MRSA); S. aureus (MRSA) 6169,0.5 µg/mL
same,MIC,S. aureus (MRSA); S. aureus (MRSA) 6174,0.5 µg/mL
same,MIC,S. aureus (MRSA); S. aureus (MRSA) 6311,1 µg/mL
same,MIC,S. aureus (MRSA); S. aureus (MRSA) 6312,0.5 µg/mL
same,MIC,S. aureus (MRSA); S. aureus (MRSA) 6313,0.5 µg/mL
same,MIC,S. aureus (MRSA); S. aureus (MRSA) 6315,1 µg/mL
same,MIC,S. aureus (MRSA); S. aureus (MRSA) 6320,1 µg/mL
same,MIC,S. aureus (MRSA); S. aureus (MRSA) 6498,0.5 µg/mL
same,MIC,S. aureus (MRSA); S. aureus (MRSA) 6501,0.5 µg/mL
same,MIC,S. aureus (MRSA); S. aureus (MRSA) 6505,0.5 µg/mL
same,MIC,S. aureus (MRSA); S. aureus (MRSA) 6506,0.5 µg/mL
same,MIC,S. aureus (MRSA); S. aureus (MRSA) NRS382/2119,1 µg/mL
same,MIC,S. aureus (MRSA); S. aureus (MRSA) NRS383/2120,0.5 µg/mL
same,MIC,S. aureus (MRSA); S. aureus (MRSA) NRS384/2011,0.5 µg/mL
